Columns and labels:
displaced cells = settings: pre-determined period, then calcium containing medium containing cortisone
Excerpt: The erythroid progenitors can be cultured and expanded for long periods of time and may be used in the treatment red blood disorder and red blood shortages.

[1] = tested on: enriched, purified, normal B lymphocytes; experiment: Flow cytometry of enriched, purified, normal B lymphocytes treated with one of three agents (FIG. 20); format: cell-based, human; settings: compared with the negative control
Experimental: Initial studies actually identified three agents—granulocyte/monocyte-colony stimulating factor (GM-CSF), erythropoietin and mAb CR3/43. A preparation of enriched, purified, normal B lymphocytes was treated in a device according to the present invention with one of these three agents in a similar manner to that described for CR3/43 and TAL.1B5 above and treated samples examined by flow cytometry as described above. […] In particular, all three agents increased the relative number of CD34^+ cells in the cell population (see FIG. 20).

Compound	retrodifferentiation of more committed cells (displaced cells)	relative number of CD34+ cells in the cell population (FIG. 20) [1]
O=C(O)CN(CCN(CC(=O)O)CC(=O)O)CC(=O)O [EDTA]	caused more committed cells to retrodifferentiate into undifferentiated cells	
GM-CSF: granulocyte/monocyte-colony stimulating factor, haematopoietic growth factor		increased

From patent US8163536B2, “Device for preparing an undifferentiated cell from a more committed cell” (Tristem Trading (Cyprus) Limited, priority 2000, dated 2012)
